Key:
primary AML marrow cells = test: Growth/viability of primary AML marrow cells; type: cell-based, human
Excerpt: AML patient samples were acquired following informed consent and under the direction of IRB approved protocols.

normal CD34+ cells = test: Colony formation in methylcellulose, normal CD34+ cells
Protocol: The effect of IRAK-Inh on leukemic progenitor function was evaluated in methylcellulose containing IRAK-Inh. […] As an alternative approach, MDS/AML cells were pre-treated with IRAK-Inh for 24 hours and then plated in methylcellulose.

MDSL cells [1] = test: MDSL xenograft, in vivo i.p. delivery after engraftment, NSG mice
Protocol: (§1) Xenograftment of NOD/SCID-IL2Rγ(NSG) and NSG-hSCF/hGM-CSF/hIL3 (NSGS) MDSL cells (1×10^6-5×10^6) were injected into the tail veins of 8-week old sublethally irradiated ([…]) NSG or NSG animals engineered to express human SCF, GM-CSF, and IL3 (NSGS) as previously described (Wunderlich et al., 2010). Mice were monitored by performing complete blood counts (Drew Hemavet 950FS). Following red cell lysis, human MDSL cells were identified by hCD45-FITC staining. In vivo delivery of IRAK-Inh approach is adapted from previous reports (Yang et al., 2011): IRAK-Inh was diluted in DMSO (5 mM) and further dissolved in sterile phosphate buffered saline (PBS; pH 7.2). Animals were injected i.p. with 2.12 mg/kg IRAK-Inh 3× weekly.
To determine whether IRAK-Inh can delay human MDS-like disease in vivo, MDSL were pre-treated with IRAK-Inh (10 μM) for 24 hrs in vitro and subsequently injected intravenously (i.v.) into NSG (5×10^6 cells) and NSGS (1×10^6 cells) recipient mice (FIG. 4A). This approach permitted us to evaluate the cell autonomous effect of IRAK-Inh on MDS cell viability and engraftment without altering endogenous IRAK1 function in the mouse. […] In addition, the human MDSL graft was reduced from 8% to 2% (FIG. 4D). Morphological assessment confirmed normal RBC and reduced MDS grafts in the peripheral blood and marrow of mice transplanted with IRAK-Inh-treated MDSL cells (FIG. 4E). […]

[2] = system: MDS/AML cell lines (MDSL, TF1, THP1, HL60); test: Viable cell growth (trypan blue exclusion) of MDS/AML cell lines; type: cell-based, human
Protocol: Acute myeloid leukemic cell lines, HL60, THP1, and TF-1 were purchased from the American Type Culture Collection. MOLM13 were purchased from AddexBio. The myelodysplastic cell line, MDS-L, was provided by Dr. Kaoru Tohyama (Kawasaki Medical School, Okayama, Japan) (Matsuoka et al., 2010). […] Additionally, both the MDSL and TF-1 cell lines were cultured in the presence of 10 ng/mL human recombinant IL-3 (Stemcell Technologies).

MDS patient marrow cells [3] = conditions: 48 hrs
Protocol: Annexin V analysis was carried out as previously described (Fang et al., 2012). Cells were stained after either drug treatment or lentiviral transduction with Annexin V (eBioscience) and propidium iodide (Sigma-Aldrich), or 7AAD (eBioscience) according to the manufacturer's instructions. Analysis was performed using BD FACSCalibur or FACSCanto flow cytometer with either CellQuest or Diva software. For in vitro growth assays, cell expansion in liquid culture was determined based on trypan blue exclusion using an automated cell counter (BioRad TC10). For experiments beyond 48 hrs, cells were replenished with fresh media and drug every second day. For primary patient marrow cells, cell were treated with a single inhibitor dose and counted 24 and 48 hours later. NF-κB DNA-binding assay Nuclear lysates were isolated from treated cells as previously described (Starczynowski et al., 2011). NF-κB (p65) DNA binding was measured using an ELISA-based assay according to the manufacturer's recommendations (KHO0371, Invitrogen)

MDS patient marrow cells [4] = test: Colony formation in methylcellulose, primary MDS marrow cells; conditions: continuously treated or briefly exposed
Excerpt: (§2) We evaluated marrow cells from 7 MDS and 3 AML patient samples with various cytogenetic features to determine whether IRAK1 inhibition is also effective in primary patient cells (Table S1). […] Since MDS and AML stem/progenitor cells are clonal and the disease-propagating cells form colonies in methylcellulose, we also evaluated the effects of IRAK-Inh on colony formation.

MDSL cells [5] = test: Cell cycle analysis by BrdU/7AAD; type: cell-based, human; conditions: 10 μM, up to 6 days
Protocol: MDS/AML cell lines with hyperphosphorylated IRAK1 (FIG. 1D) were evaluated for sensitivity to IRAK-Inh. MDS/AML cell lines exposed to increasing concentration of IRAK-Inh were cultured for up to 6 days in vitro (FIG. 3A). […] In support of this observation, the inhibitory effect of IRAK-Inh on the cell lines correlated with the level of phosphorylated IRAK1 (R2=0.36; FIG. 3B). In parallel, cell viability was examined after 48 hrs of treatment with the IRAK-Inh. […] To investigate whether IRAK-Inh affects cell cycle progression, MDSL cells were treated with 10 μM IRAK-Inh for up to 6 days and evaluated by BrdU/7AAD staining (FIG. 3D).

IRAK4 = IRAK4 (Homo sapiens, UniProt Q9NWZ3); conditions: read-out: IC50 IRAK4; Powers et al., 2006; cited from earlier work
Lck = Lck (Homo sapiens, UniProt P06239); conditions: read-out: IC50 Lck; Powers et al., 2006; cited from earlier work
AML patient cells = test: Colony formation in methylcellulose, primary AML cells; type: cell-based, human
Excerpt: as §2

MDSL cells [6] = test: MDSL xenograft, cells pre-treated in vitro, NSGS mice; type: in vivo
Protocol: as §1
To determine whether IRAK-Inh can delay human MDS-like disease in vivo, MDSL were pre-treated with IRAK-Inh (10 μM) for 24 hrs in vitro and subsequently injected intravenously (i.v.) into NSG (5×10^6 cells) and NSGS (1×10^6 cells) recipient mice (FIG. 4A). This approach permitted us to evaluate the cell autonomous effect of IRAK-Inh on MDS cell viability and engraftment without altering endogenous IRAK1 function in the mouse.
Moreover, we investigated whether combined IRAK1 and BCL2 inhibition could delay human MDS-like disease in vivo. MDSL cells were treated with IRAK-Inh (10 μM) and/or ABT-263 (0.1 μM) for 48 hrs in vitro and subsequently injected i.v. into NSGS mice (FIG. 4A).

MDS/AML cell lines = test: AnnexinV apoptosis staining of MDS/AML cell lines; type: cell-based, human; conditions: all cell lines, 48 hrs of treatment, 10 μM

Sequence of Lck (P06239 whole entry, species assumed): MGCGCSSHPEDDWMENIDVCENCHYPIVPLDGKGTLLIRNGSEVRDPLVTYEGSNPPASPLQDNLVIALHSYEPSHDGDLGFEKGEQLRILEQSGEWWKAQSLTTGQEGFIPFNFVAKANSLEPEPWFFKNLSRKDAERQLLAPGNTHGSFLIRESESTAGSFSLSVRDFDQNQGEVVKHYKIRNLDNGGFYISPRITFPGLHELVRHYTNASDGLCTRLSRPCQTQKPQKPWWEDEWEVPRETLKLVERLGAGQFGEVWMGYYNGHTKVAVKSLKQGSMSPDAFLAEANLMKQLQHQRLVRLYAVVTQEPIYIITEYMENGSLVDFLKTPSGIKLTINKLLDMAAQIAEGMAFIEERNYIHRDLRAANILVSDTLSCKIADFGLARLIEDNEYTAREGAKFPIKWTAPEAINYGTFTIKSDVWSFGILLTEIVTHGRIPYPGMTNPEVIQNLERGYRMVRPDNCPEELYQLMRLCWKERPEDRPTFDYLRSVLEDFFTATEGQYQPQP
Sequence of IRAK4 (Q9NWZ3 whole entry, species assumed): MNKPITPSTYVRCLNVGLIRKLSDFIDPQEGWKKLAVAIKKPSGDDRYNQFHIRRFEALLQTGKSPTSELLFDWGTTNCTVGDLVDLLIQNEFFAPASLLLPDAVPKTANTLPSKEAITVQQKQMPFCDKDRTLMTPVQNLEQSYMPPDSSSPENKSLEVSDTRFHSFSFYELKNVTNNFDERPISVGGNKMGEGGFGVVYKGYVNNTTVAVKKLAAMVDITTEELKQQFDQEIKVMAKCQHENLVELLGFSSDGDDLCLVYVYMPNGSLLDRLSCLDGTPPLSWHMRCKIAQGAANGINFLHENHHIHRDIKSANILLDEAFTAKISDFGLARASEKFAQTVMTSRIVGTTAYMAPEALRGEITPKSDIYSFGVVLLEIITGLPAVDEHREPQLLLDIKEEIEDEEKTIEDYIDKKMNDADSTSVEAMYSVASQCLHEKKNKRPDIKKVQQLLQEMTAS

Compound: O=C(Nc1nc2ccccc2n1CCN1CCOCC1)c1cccc([N+](=O)[O-])c1 [IRAK-Inh, N-(2-morpholinylethyl)-2-(3-nitrobenzoylamido)-benzimidazole]
- growth of AML marrow cells (primary AML marrow cells): continued to grow similar to control-treated cells
- viability of primary AML marrow cells (primary AML marrow cells): only modestly reduced
- control CD34+ cell progenitor function (normal CD34+ cells): did not affect
- colony formation, methylcellulose containing inhibitor (normal CD34+ cells; normal CD34+): equivalent number of colonies
- HCT and Hb levels (MDSL cells [1]; 2.12 mg/kg i.p. 3×/week from day 6): maintained HCT and Hb levels
- human graft in peripheral blood (hCD45) (MDSL cells [1]; within ~7 days of receiving 2.12 mg/kg i.p. 3×/week): reduced human graft in the peripheral blood
- viability of HL60 cells ([2]; HL60): only modestly reduced
- sensitivity of HL60 cells ([2]; HL60, IRAK-Inh 10 μM, ABT-263 0.1 μM, alone or combined): refractory
- MDS/AML cell line growth and survival ([2]; IRAK-Inh 10 μM, ABT-263 0.1 μM, alone or co-treatment): modest effects
- cell proliferation ([2]; MDSL, TF1 and THP1, 0-10 μM, up to 6 days): dose-dependent impairment
- expansion of MDS marrow cells (MDS patient marrow cells [3]): failed to expand
- apoptotic cells in MDS marrow cells (MDS patient marrow cells [3]; except for MDS-07): increased levels of apoptotic cells
- colony formation of MDS marrow cells (MDS patient marrow cells [4]): significantly fewer colonies
- proportion in G0/G1 (MDSL cells [5]): 62.7%±1.1
- proportion of sub-G0 cells (MDSL cells [5]): 5.4%±0.3
- viable cells in S phase (MDSL cells [5]): 4.3%±0.4
- IC50 (IRAK4): 200 nM
- IC50 (Lck): > 10000 nM
- AML progenitor function (AML patient cells): did not affect
- leukemic progenitor function of AML patient cells (AML patient cells; IRAK-Inh 10 μM, ABT-263 0.1 μM): not sensitive
- median survival (MDSL cells [6]; MDSL pre-treated 10 μM 24 hrs, 1×10^6 cells i.v., control 29 days): 38 days
- median survival (MDSL cells [6]; MDSL treated in vitro with IRAK-Inh 10 μM and/or ABT-263 0.1 μM, DMSO 28 days): ~35 days
- red blood cell numbers, hemoglobin, hematocrit and platelets (MDSL cells [6]; mice transplanted with pre-treated MDSL cells): significantly improved
- apoptosis (MDS/AML cell lines): modest increase in apoptosis

— patent US9855273B2, “Combination therapy for MDS” (priority 2013, dated 2018)
